Data from article PMC11969024, “Development of chemokine network inhibitors using combinatorial saturation mutagenesis” (Communications Biology, 2025).

Tested on: panel of 22 biotinylated chemokines
Experiment: Saturation (NNK) mutagenesis phage-display selection against biotinylated chemokines, enrichment by NGS
Assay type: binding, human
Conditions: two-sided Dunnett's test; for log2E compared to parental HD2, CXnC chemokines: 7 CXnC chemokines
Source text: 81-mer mutant oligonucleotides replacing NNK at each of the 16 peptide encoding residues were designed with the sequence arms 5’-[…], and […]-3’ at respective ends to enable amplification and cloning. Oligonucleotides (Genscript) were individually amplified and cloned into plasmid prSTOP4Nsi (described in[37]). prSTOP4Nsi was amplified using primers (Sigma): […]
Oligonucleotides were amplified using primers (Sigma): oligo_fwd: 5’-[…] and oligo_rev2: 5’-[…]. The PCR products were cloned into prSTOP4Nsi plasmid using NEB Builder HiFi Assembly (E5520, NEB) following instructions of the manufacturer. The vector pool was used to transform electrocompetent ElectroMAX™ DH5α-E™ cells (11319019, Invitrogen). Plasmid DNA was harvested by MaxiPrep (GeneJet Plasmid Maxiprep Kit (K0491, Thermo Scientific)). DNA was transformed into SS320 phage display electrocompetent cells (60512, Lucigen), following the manufacturer’s protocol. Following electroporation, cells were resuspended in 950 μL recovery media and transferred to 50 mL Falcon tubes. 100 μL 10^11 CFU/mL M13KO7 helper phage (N0315S, NEB) was added, and tubes shaken at 37 °C, 220 RPM, 1 h. 1 mL recovery culture was added to 2YT medium containing +50ug/mL carbenicillin (C9231, Sigma) and 25ug/mL kanamycin (K1377, Sigma), and grown overnight at 37 °C, 220 RPM. Phage was precipitated from culture supernatant by adding 22.5 mL of supernatant to 4.5 mL 20% PEG 8000 (89510, Sigma)/2.5 M NaCl (S9625, Sigma), incubating on ice for 30 min, and centrifuging at 12857 g, 4 °C, 10 min. The phage pellet was resuspended in 1 mL of PBT (PBS (P4417, Sigma), BSA (A7030, Sigma) 0.20%, Tween 20 (P1379, Sigma) 0.05%). Undissolved particulate matter was removed by centrifugation at 15871 g, 4 °C, 10 min. Glycerol (G5516, Sigma, 10% final (v/v) was added, and aliquots stored at −80 °C. A schematic of phage-display library construction is provided in Supplementary Fig. 12.
Phage display screening was performed as described. Experiments were performed in 96-well plates (Greiner Bio-One, 655180). Biotinylated chemokines or complement C5A (1μg, Almac or Protein Foundry) were incubated overnight at 4 °C with shaking at 250 RPM with 5μl streptavidin-coated magnetic beads (Dynabeads™ M-280 Streptavidin, Invitrogen, 11205D) in 100 μl PBS. Chemokine-bound beads were blocked for two hours in 200μl blocking buffer (PBS (phosphate-buffered saline, Sigma, P4417) + 0.2% BSA (bovine serum albumin, Sigma, A7030) with shaking at 250 RPM. Phage library (100μL, 10^10 CFU/mL) was bound to blocked beads for two hours at room temperature with shaking at 250 RPM. Beads were washed 15 times with PT buffer (PBS + 0.05% Tween 20 (Sigma, P1379)) to remove unbound phage then transferred to a fresh plate. Beads were incubated with 100μL phage-resistant Omnimax E. coli (Invitrogen, A10469) at optical density (OD600) 0.6-0.8, shaken at 37 °C for 30 min. Following this 10 µL M13K07 helper phage (NEB, N0315S, final concentration 10^10 CFU/mL) was added and shaken at 37 °C for 45 min. Cells were transferred to 1 mL 2YT medium (at pH7, MP Biomedicals™, 113012031, supplemented with 150 µg/mL carbenicillin (Sigma, C9231) and 75 µg/mL kanamycin (Sigma, K1377) in a 96-deep well block with V-bottom (Corning, CLS3960) and grown with overnight shaking at 37 °C, 200 RPM. Plates were either centrifuged at 2000g (4 °C, 30 min) or transferred to screw cap tubes and pelleted by centrifugation at 4000 g and 4 °C for 15 min. 540 µL of supernatant was transferred to a new 96-deep well plate, 60 µL of 10×PBT (10×PBS + 2% BSA + 0.5% Tween 20) added and stored at 4 °C for subsequent rounds. Phage display was carried out for three rounds. A schematic of phage-display library screening is provided in Supplementary Fig. 12.
We amplified inserts from the input library and from the selected phage population directly from phage by PCR using primers: 5’-[…] and 5’-[…] (Life Technologies). […]

Sequence	log2E compared to parental HD2, CXnC chemokines	log2E compared to parental HD2, all chemokines (three selection rounds, 22 chemokines)
EEDDYWAYAPLTCYFT [HD2T6W, HD2 point mutant]	significant improvement	significantly improved
EEDDWTAYAPLTCYFT [HD2Y5W, HD2 point mutant]	significant improvement	–
